Drawing on patent publication US8530468B2 (Cancer Research Technology Limited, priority 2008, dated 2013), this text covers IC50 for 33 compounds.

Assay [1] deals with HT29 cells. Description: Mitosis inhibition assay (MIA), checkpoint abrogation after etoposide. The class given is cell-based. The settings on record: Homo sapiens, HT-29, etoposide 50 μM 1 hour, then compound with nocodazole 100 ng/mL, 21 hours, read-out: MIA IC50 (concentration required to allow 50% of cells to enter mitosis).
Assay [2] addresses T1, CHK1 (Homo sapiens, UniProt O14757).
T1 sequence (O14757 1-476): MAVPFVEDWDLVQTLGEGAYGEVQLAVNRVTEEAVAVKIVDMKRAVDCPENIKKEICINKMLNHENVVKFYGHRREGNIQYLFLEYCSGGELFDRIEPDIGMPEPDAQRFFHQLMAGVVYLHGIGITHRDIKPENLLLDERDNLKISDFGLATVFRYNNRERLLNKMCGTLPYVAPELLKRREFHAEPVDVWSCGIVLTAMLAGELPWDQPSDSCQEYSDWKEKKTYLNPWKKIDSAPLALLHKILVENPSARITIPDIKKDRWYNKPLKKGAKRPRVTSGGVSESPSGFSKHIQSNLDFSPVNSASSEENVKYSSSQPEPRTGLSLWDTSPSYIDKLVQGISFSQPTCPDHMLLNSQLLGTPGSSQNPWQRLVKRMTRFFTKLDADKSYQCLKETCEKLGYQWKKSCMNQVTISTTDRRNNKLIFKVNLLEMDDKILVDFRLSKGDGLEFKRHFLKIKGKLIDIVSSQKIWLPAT
The assay can be described thus: CHK1 kinase function inhibition (DELFIA assay, phosphorylation of CDC25C peptide). The following applies: CHK1 1 nM, ATP 30 μM, 30 minutes at room temperature. The class given is biochemical.

Assay [3] has as its system HT29 colon carcinoma cells. The assay can be described thus: Cytotoxicity assay (SRB). The class given is cell-based. The settings on record: Homo sapiens, read-out: SRB IC50 (concentration required to inhibit growth by 50%).

Molecules are shown by their SMILES. Read-outs that look alike come from different tables or passages of the source.

For the compound `Cc1cccc2cc(Nc3cnc(C#N)c(O[C@@H]4CCNC4)n3)ncc12` [AA-058], the IC50 is at most 10 µM in assay [1]; at most 1 µM in assay [2]; at most 10 µM in assay [3] (HT-29, 96 hours).
Regarding `N#Cc1ncc(Nc2cc3cccc(Br)c3cn2)nc1O[C@@H]1CCNC1` [AA-052], the IC50 is at most 10 µM in assay [1]; at most 1 µM in assay [2]; at most 10 µM in assay [3] (HT-29, 96 hours).
With `N#Cc1ncc(Nc2cc3cccc(NCCO)c3cn2)nc1OC[C@H]1CNCCO1` [AA-043], the IC50 in assay [1] is at most 10 µM; in assay [2], at most 1 µM; in assay [3] (HT-29, 96 hours) it was at most 10 µM.
Regarding `N#Cc1ncc(Nc2cc3cccc(Cl)c3cn2)nc1O[C@@H]1CCNC1` [AA-008, (R)-5-(8-Chloroisoquinolin-3-ylamino)-3-(pyrrolidin-3-yloxy)pyrazine-2-carbonitrile], the IC50 was at most 10 µM in assay [1]; at most 1 µM in assay [2]; at most 10 µM in assay [3] (HT-29, 96 hours).
With `Cc1cccc2cc(Nc3cnc(C#N)c(OC(C)CN(C)C)n3)ncc12` (stereo not shown) [AA-025], the IC50 is at most 10 µM in assay [1]; at most 1 µM in assay [2]; at most 10 µM in assay [3] (HT-29, 96 hours).
For `N#Cc1ncc(Nc2cc3cccc(Cl)c3cn2)nc1OC1CCCNC1` (stereo not shown) [AA-007], the IC50 in assay [1] is at most 10 µM; in assay [3] (HT-29, 96 h) it was at most 10 µM.
Regarding `N#Cc1cnc(Nc2cc3cccc(N)c3cn2)cn1` [AA-061, 5-(8-Aminoisoquinolin-3-ylamino)pyrazine-2-carbonitrile], the IC50 was at most 10 µM in assay [1]; at most 1 µM in assay [2]; at most 10 µM in assay [3] (HT-29, 96 hours).
`CC(CN(C)C)Oc1nc(Nc2cc3cccc(NCCCO)c3cn2)cnc1C#N` (stereo not shown) [AA-034]: the IC50 in assay [1] is at most 10 µM; in assay [2], at most 1 µM; in assay [3] (HT-29, 96 hours), at most 10 µM.
Consider `N#Cc1ncc(Nc2cc3cccc(C(F)(F)F)c3cn2)nc1O[C@@H]1CCNC1` [AA-055], for which the IC50 in assay [1] was at most 10 µM; in assay [2], at most 1 µM; in assay [3] (HT-29, 96 hours) it was at most 10 µM.
As to `N#Cc1cnc(Nc2cc3cccc(NCCCN4CCOCC4)c3cn2)cn1` [AA-027], the IC50 in assay [1] was at most 10 µM; in assay [2], at most 1 µM; in assay [3] (HT-29, 96 hours), at most 10 µM.
As to `COCCCNc1cccc2cc(Nc3cnc(C#N)c(O[C@H](C)CN(C)C)n3)ncc12` [AA-038], the IC50 is at most 10 µM in assay [1]; at most 1 µM in assay [2]; at most 10 µM in assay [3] (HT-29, 96 hours).
`N#Cc1cnc(Nc2cc3cccc(NCCN4CCOCC4)c3cn2)cn1` [AA-020, 5-(8-(2-morpholinoethylamino)isoquinolin-3-ylamino)pyrazine-2-carbonitrile]: the IC50 is at most 10 µM in assay [1]; at most 1 µM in assay [2]; at most 10 µM in assay [3] (HT-29, 96 hours).
As for `C[C@H](CN(C)C)Oc1nc(Nc2cc3cccc(NCCCO)c3cn2)cnc1C#N` [AA-041], the IC50 in assay [1] is at most 10 µM; in assay [2], at most 1 µM; in assay [3] (HT-29, 96 hours), at most 10 µM.
For `N#Cc1cnc(Nc2cc3cccc(NCCCO)c3cn2)cn1` [AA-033], the IC50 is at most 10 µM in assay [1]; at most 1 µM in assay [2]; at most 10 µM in assay [3] (HT-29, 96 hours).
As to `CC(CN(C)C)Oc1nc(Nc2cc3cccc(Br)c3cn2)cnc1C#N` (stereo not shown) [AA-026], the IC50 in assay [1] was at most 10 µM; in assay [2], at most 1 µM; in assay [3] (HT-29, 96 hours), at most 10 µM.
Take `COc1cccc2cc(Nc3cnc(C#N)c(O[C@H](C)CN(C)C)n3)ncc12` [AA-067, (R)-3-(1-(Dimethylamino)propan-2-yloxy)-5-(8-methoxyisoquinolin-3-ylamino)pyrazine-2-carbonitrile]: the IC50 in assay [1] is at most 10 µM; in assay [2] it was at most 1 µM; in assay [3] (HT-29, 96 hours), at most 10 µM.
As for `N#Cc1ncc(Nc2cc3cccc(Br)c3cn2)nc1OC[C@H]1CNCCO1` [AA-051], the IC50 is at most 10 µM in assay [1]; at most 1 µM in assay [2]; at most 10 µM in assay [3] (HT-29, 96 hours).
In the case of `C[C@H](CN(C)C)Oc1nc(Nc2cc3cccc(Cl)c3cn2)cnc1C#N` [AA-023], the IC50 in assay [1] is at most 10 µM; in assay [3] (HT-29, 96 h), at most 10 µM.
With `N#Cc1cnc(Nc2cc3cccc(NCCO)c3cn2)cn1` [AA-031, 5-(8-(2-Hydroxyethylamino)isoquinolin-3-ylamino)pyrazine-2-carbonitrile], the IC50 in assay [1] is at most 10 µM; in assay [2] it was at most 1 µM; in assay [3] (HT-29, 96 hours), at most 10 µM.
As to `N#Cc1ncc(Nc2cc3ccccc3cn2)nc1O[C@@H]1CCNC1` [AA-050], the IC50 was at most 10 µM in assay [1]; at most 1 µM in assay [2]; at most 10 µM in assay [3] (HT-29, 96 hours).
As to `C[C@H](CN(C)C)Oc1nc(Nc2cc3ccccc3cn2)cnc1C#N` [AA-022], the IC50 was at most 10 µM in assay [1] and at most 10 µM in assay [3] (HT-29, 96 h).
Turning to `N#Cc1ncc(Nc2cc3ccccc3cn2)nc1OC[C@H]1CNCCO1` [AA-049], the IC50 in assay [1] was at most 10 µM; in assay [2], at most 1 µM; in assay [3] (HT-29, 96 hours) it was at most 10 µM.
In the case of `N#Cc1ncc(Nc2cc3cccc(NCCCO)c3cn2)nc1O[C@@H]1CCNC1` [AA-040], the IC50 in assay [1] is at most 10 µM; in assay [2], at most 1 µM; in assay [3] (HT-29, 96 hours), at most 10 µM.
For `CNc1cccc2cc(Nc3cnc(C#N)cn3)ncc12` [AA-059], the IC50 was at most 10 µM in assay [1]; at most 1 µM in assay [2]; at most 10 µM in assay [3] (HT-29, 96 hours).
As for `CNc1cccc2cc(Nc3cnc(C#N)c(OC(C)CN(C)C)n3)ncc12` (stereo not shown) [AA-060], the IC50 in assay [1] was at most 10 µM; in assay [2], at most 1 µM; in assay [3] (HT-29, 96 hours) it was at most 10 µM.
Regarding `CN1CCC(COc2nc(Nc3cc4cccc(Cl)c4cn3)cnc2C#N)CC1` [AA-014], the IC50 in assay [1] is at most 10 µM; in assay [2], at most 1 µM; in assay [3] (HT-29, 96 hours) it was at most 10 µM.
For the compound `Cc1cccc2cc(Nc3cnc(C#N)c(O[C@H](C)CN(C)C)n3)ncc12` [AA-057], the IC50 in assay [1] was at most 10 µM; in assay [2], at most 1 µM; in assay [3] (HT-29, 96 hours) it was at most 10 µM.
As to `COCCNc1cccc2cc(Nc3cnc(C#N)c(O[C@@H]4CCNC4)n3)ncc12` [AA-037], the IC50 is at most 10 µM in assay [1]; at most 1 µM in assay [2]; at most 10 µM in assay [3] (HT-29, 96 hours).
On to `C[C@H](CN(C)C)Oc1nc(Nc2cc3cccc(F)c3cn2)cnc1C#N` [AA-054], for which the IC50 in assay [1] was at most 10 µM; in assay [2], at most 1 µM; in assay [3] (HT-29, 96 hours) it was at most 10 µM.
Consider `COCCNc1cccc2cc(Nc3cnc(C#N)c(O[C@H](C)CN(C)C)n3)ncc12` [AA-039], for which the IC50 in assay [1] is at most 10 µM; in assay [3] (HT-29, 96 hours) it was at most 10 µM.
As to `CC(CN(C)C)Oc1nc(Nc2cc3cccc(NCCO)c3cn2)cnc1C#N` (stereo not shown) [AA-032], the IC50 in assay [1] is at most 10 µM; in assay [2], at most 1 µM; in assay [3] (HT-29, 96 hours), at most 10 µM.
Consider `N#Cc1ncc(Nc2cc3cccc(NCCO)c3cn2)nc1O[C@@H]1CCNC1` [AA-044], for which the IC50 in assay [1] is at most 10 µM; in assay [2] it was at most 1 µM; in assay [3] (HT-29, 96 hours), at most 10 µM.
Take `CC(CN(C)C)Oc1nc(Nc2cc3cccc(Cl)c3cn2)cnc1C#N` (stereo not shown) [AA-010]: the IC50 in assay [1] is at most 10 µM; in assay [3] (HT-29, 96 h), at most 10 µM.
